Test results taken from patent US9603858B2, “Compositions for preventing and treating an immune system disorder” (RAISIO NUTRITION LTD., priority 2010, dated 2017).

Legend:
[1] = tested on: PBMCs from asthma patients; test: Cytokine production in PHA stimulated PBMCs cultured ex vivo with sitostanol; format: cell-based, human; settings: sitostanol 1.2 μM, 52 hours PHA stimulation
From the text: 20 people were enrolled in the study: 10 asthma patients and 10 healthy controls. Healthy controls were matched to the asthma patients in sex, age and body mass index (BMI). Exclusion criteria were smoking, diabetes, autoimmune diseases, inflammatory diseases, and the use of plant stanol or plant sterol enriched food products. Blood was taken twice from each participant, with a four-week interval. Peripheral blood mononuclear cells (PBMCs) were isolated and cultured with either cholesterol or sitostanol added to the culture. The concentration of PBMCs in the test culture was the same as in blood naturally. The concentrations of sitostanol and cholesterol were 1.2 μM. After 52 hours of stimulation with PHA (phytohemagglutinin), cytokine concentrations in the culture medium were determined. Cholesterol was added as a control to see whether the observed effects were specific plant stanol effects.

TLR2 = molecular target: T1, TLR2 (Homo sapiens, UniProt O60603); test: Mechanism of the Th1 shift: TLR2 activation; format: cell-based
T1 construct: endogenous in cells
T1 sequence (O60603 21-784): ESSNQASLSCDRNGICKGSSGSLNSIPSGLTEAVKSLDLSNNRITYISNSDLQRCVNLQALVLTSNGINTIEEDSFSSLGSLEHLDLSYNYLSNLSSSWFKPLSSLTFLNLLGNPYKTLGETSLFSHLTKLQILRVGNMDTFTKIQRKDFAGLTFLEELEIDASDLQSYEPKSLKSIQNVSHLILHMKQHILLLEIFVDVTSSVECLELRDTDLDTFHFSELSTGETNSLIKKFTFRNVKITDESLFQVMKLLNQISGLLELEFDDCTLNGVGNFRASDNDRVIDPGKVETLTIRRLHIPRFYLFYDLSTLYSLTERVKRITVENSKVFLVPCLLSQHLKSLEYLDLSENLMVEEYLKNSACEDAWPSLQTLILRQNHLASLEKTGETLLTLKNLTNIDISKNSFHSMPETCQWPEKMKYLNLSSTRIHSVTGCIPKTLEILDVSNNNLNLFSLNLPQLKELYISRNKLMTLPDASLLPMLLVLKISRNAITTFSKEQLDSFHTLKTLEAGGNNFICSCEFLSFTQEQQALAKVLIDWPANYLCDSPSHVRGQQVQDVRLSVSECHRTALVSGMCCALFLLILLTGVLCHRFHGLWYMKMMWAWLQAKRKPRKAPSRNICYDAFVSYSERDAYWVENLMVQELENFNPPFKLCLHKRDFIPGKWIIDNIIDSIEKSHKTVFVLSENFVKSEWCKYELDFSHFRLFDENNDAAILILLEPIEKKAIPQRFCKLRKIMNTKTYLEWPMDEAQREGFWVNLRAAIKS

CC[C@H](CC[C@@H](C)[C@H]1CC[C@H]2[C@@H]3CC[C@H]4C[C@@H](O)CC[C@]4(C)[C@H]3CC[C@]12C)C(C)C [sitostanol]
IFNγ concentration in the culture medium, change vs. control condition ([1]; FIG. 1): increases
IL-2 concentration in the culture medium, change vs. control condition ([1]; FIG. 1): increases
IL-10 production in PBMCs from asthma patients, change vs. control condition ([1]; FIG. 2): induces IL-10 production
Th1 shift via activation of TLR2 (TLR2): induces this Th1 shift via activation of TLR2
